Drawing on patent US10246429B2, “Vinyl fluoride cyclopropyl fused thiazin-2-amine compounds as beta-secretase inhibitors and methods of use” (AMGEN INC., priority 2015, dated 2019), this text covers IC50 for seven molecules.

Experiment [1] deals with T1, BACE1 (Homo sapiens (Human), UniProt P56817). Description: In vitro enzymatic BACE1 FRET assay. It counts as biochemical. Conditions: read-out: IC50 IP (μM) BACE1 Enzyme.
Target sequence in this assay (P56817 46-501): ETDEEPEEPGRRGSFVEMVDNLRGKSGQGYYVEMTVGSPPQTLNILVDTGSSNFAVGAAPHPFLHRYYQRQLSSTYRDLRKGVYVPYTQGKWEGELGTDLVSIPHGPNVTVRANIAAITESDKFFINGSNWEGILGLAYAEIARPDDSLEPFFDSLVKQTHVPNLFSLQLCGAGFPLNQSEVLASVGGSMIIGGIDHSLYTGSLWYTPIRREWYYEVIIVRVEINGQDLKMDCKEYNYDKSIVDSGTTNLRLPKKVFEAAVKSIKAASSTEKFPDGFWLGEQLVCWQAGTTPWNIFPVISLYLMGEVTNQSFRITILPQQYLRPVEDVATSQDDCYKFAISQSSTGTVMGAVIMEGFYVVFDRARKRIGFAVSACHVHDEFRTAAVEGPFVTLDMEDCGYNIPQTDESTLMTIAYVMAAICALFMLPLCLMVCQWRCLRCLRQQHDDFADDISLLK
Description: (§1) In Vitro Enzymatic BACE1 and BACE2 FRET (Fluorescence Resonance Energy Transfer) Assays (Enzyme Assay Data in Table 1)
In experiment [2] the target is T1, BACE1. Description: BACE1 cell assay. It counts as cell-based. Particulars: for IC50: read-out: IC50 IP (μM) BACE1 Cell.
Target sequence in this assay (P56817 46-501, species assumed): as the sequence (P56817 46-501) above
In a further experiment the target is BACE2 (Homo sapiens (Human), UniProt Q9Y5Z0). Description: In vitro enzymatic BACE2 FRET assay. Conditions: read-out: IC50 IP (μM) BACE2 Enzyme. It counts as biochemical.
Chain of BACE2 (Q9Y5Z0 63-518): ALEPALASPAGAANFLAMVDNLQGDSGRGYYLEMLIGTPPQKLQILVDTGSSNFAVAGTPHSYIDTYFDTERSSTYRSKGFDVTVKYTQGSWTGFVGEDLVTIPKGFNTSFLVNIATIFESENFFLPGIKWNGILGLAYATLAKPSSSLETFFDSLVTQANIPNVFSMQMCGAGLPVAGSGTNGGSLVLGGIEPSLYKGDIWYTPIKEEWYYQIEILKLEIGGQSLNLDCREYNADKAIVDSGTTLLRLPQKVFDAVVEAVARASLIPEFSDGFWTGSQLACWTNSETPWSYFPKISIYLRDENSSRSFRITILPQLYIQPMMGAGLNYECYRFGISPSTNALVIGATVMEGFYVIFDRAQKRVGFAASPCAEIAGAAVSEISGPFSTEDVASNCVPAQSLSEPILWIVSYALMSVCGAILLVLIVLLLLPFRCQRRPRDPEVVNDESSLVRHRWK
In a further experiment the target is Cathepsin D (CatD) (Homo sapiens (Human), UniProt P07339). Description: CatD assay. It counts as biochemical. Conditions: read-out: IC50 IP (μM) CatD.
Chain of Cathepsin D (CatD) (P07339 65-412, species assumed): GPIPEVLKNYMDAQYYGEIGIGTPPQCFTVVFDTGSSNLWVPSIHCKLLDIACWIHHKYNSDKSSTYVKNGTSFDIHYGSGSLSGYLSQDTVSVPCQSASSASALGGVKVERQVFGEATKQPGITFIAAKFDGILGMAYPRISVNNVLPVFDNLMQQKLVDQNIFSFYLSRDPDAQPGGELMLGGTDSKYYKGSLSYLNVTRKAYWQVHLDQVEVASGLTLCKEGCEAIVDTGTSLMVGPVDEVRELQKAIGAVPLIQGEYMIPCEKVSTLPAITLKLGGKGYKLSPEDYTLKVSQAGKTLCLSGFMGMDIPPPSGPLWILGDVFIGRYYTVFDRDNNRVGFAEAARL

A word on the IC50: it is the concentration at which inhibition is half-maximal. As usually defined, the pIC50 is the negative decadic logarithm of the IC50, by convention in mol/L. A higher pIC50 goes with a low IC50.

Structures are written as SMILES. pIC50: −log10 of the molar value.

Description for BACE2: as §1

As to `CNC(=O)[C@]12C[C@H]1[C@@](C)(c1cc(/C=C(\F)c3ncc(C#N)cc3C)ccc1F)N=C(N)S2` [Example 225, (1S,5S,6S)-3-amino-5-(5-((Z)-2-(5-cyano-3-methylpyridin-2-yl)-2-fluorovinyl)-2-fluorophenyl)-N,5-dimethyl-2-thia-4-azabicyclo[4.1.0]hept-3-ene-1-carboxamide], the IC50 on BACE1 [1] was 0.027 µM; on BACE2, 0.621 µM; on Cathepsin D (CatD) it was 198 µM. The molecule further had a pIC50 on BACE1 [2] of 7.48.

In the case of `CNC(=O)[C@]12C[C@H]1[C@@](C)(c1cc(/C=C(\F)c3cnc(OCc4cnco4)cn3)ccc1F)N=C(N)S2` [Example 226, (1S,5S,6S)-3-amino-5-(2-fluoro-5-((Z)-2-fluoro-2-(5-(oxazol-5-ylmethoxy)pyrazin-2-yl)vinyl)phenyl)-N,5-dimethyl-2-thia-4-azabicyclo[4.1.0]hept-3-ene-1-carboxamide], the results for the IC50 on BACE1 [1], on BACE2 and on Cathepsin D (CatD) were 0.126 µM, 0.285 µM and 18.5 µM, respectively. On BACE1 [2], this molecule gave a pIC50 of 6.22.

With `C#CCOc1cnc(/C(F)=C/c2ccc(F)c([C@@]3(C)N=C(N)S[C@@]4(S(C)(=O)=O)C[C@H]43)c2)cn1` [Example 227, (1R,5S,6S)-5-(2-fluoro-5-((Z)-2-fluoro-2-(5-(prop-2-yn-1-yloxy)pyrazin-2-yl)vinyl)phenyl)-5-methyl-1-(methylsulfonyl)-2-thia-4-azabicyclo[4.1.0]hept-3-en-3-amine], the IC50 at BACE1 [1] amounted to 0.0006 µM; on BACE2 it was 0.058 µM; on Cathepsin D (CatD), 55.1 µM. The same molecule gave a pIC50 against BACE1 [2] of 7.98.

Consider `C[C@]1(c2cc(/C=C(\F)c3cnc(Cl)cn3)ccc2F)N=C(N)S[C@@]2(S(C)(=O)=O)C[C@H]21` [Example 230, (1R,5S,6S)-5-(5-((Z)-2-(5-chloropyrazin-2-yl)-2-fluorovinyl)-2-fluorophenyl)-5-methyl-1-(methylsulfonyl)-2-thia-4-azabicyclo[4.1.0]hept-3-en-3-amine], for which the IC50 turned out to be 0.0057 µM on BACE1 [1], 0.231 µM at BACE1 [2], 0.011 µM on BACE2 and 121 µM at Cathepsin D (CatD).

On to `C#C[C@H](C)Oc1cnc(/C(F)=C/c2ccc(F)c([C@@]3(C)N=C(N)S[C@@]4(S(C)(=O)=O)C[C@H]43)c2)cn1` [Example 232, (1R,5S,6S)-5-(5-((Z)-2-(5-((S)-but-3-yn-2-yloxy)pyrazin-2-yl)-2-fluorovinyl)-2-fluorophenyl)-5-methyl-1-(methylsulfonyl)-2-thia-4-azabicyclo[4.1.0]hept-3-en-3-amine], for which the 50% inhibitory concentration (IC50) at BACE1 [1] is 0.001 µM; on BACE1 [2], 0.0395 µM; on BACE2, 0.108 µM; on Cathepsin D (CatD) it was 88.5 µM.

`C[C@]1(c2cc(/C=C(\F)c3ccc(C#N)cn3)ccc2F)N=C(N)S[C@@]2(S(C)(=O)=O)C[C@H]21` [Example 233, 6-((Z)-2-(3-((1R,5S,6S)-3-amino-5-methyl-1-(methylsulfonyl)-2-thia-4-azabicyclo[4.1.0]hept-3-en-5-yl)-4-fluorophenyl)-1-fluorovinyl)nicotinonitrile]: the IC50 at BACE1 [1] turned out to be 0.0016 µM; on BACE1 [2] it was 0.0087 µM; on BACE2, 0.014 µM; on Cathepsin D (CatD) it was 204 µM.

Turning to `C#CCOc1cnc(/C(F)=C/c2ccc(F)c([C@@]3(C)N=C(N)S[C@@]4(C(C)=O)C[C@H]43)c2)cn1` [Example 234, 1-((1S,5S,6S)-3-amino-5-(2-fluoro-5-((Z)-2-fluoro-2-(5-(prop-2-yn-1-yloxy)pyrazin-2-yl)vinyl)phenyl)-5-methyl-2-thia-4-azabicyclo[4.1.0]hept-3-en-1-yl)ethanone], the IC50 worked out at 0.0059 µM on BACE1 [1], 0.581 µM at BACE2 and 125 µM at Cathepsin D (CatD). This molecule also gave a pIC50 on BACE1 [2] of 7.95.
